# Literature values in patent US11998629B2, “Method for dyeing keratinous material, comprising the use of an organosilicon compound, an effect pigment and a film-forming polymer” (Henkel AG & Co. KGaA, priority 2019, dated 2024).
# Conditions: 25° C.
solubility in water,Compound,also measured
–,CCN(Cc1cccc(S(=O)(=O)[O-])c1)c1ccc(C(=C2C=CC(=[N+](CC)Cc3cccc(S(=O)(=O)[O-])c3)C=C2)c2ccccc2S(=O)(=O)[O-])cc1.[Na+].[Na+] [Acid Blue 9],water solubility: greater than 20 % by weight
2.5 mg/mL,"Nc1cc(S(=O)(=O)[O-])cc2cc(S(=O)(=O)[O-])c(N=Nc3ccccc3)c(O)c12.[Na+].[Na+] [Acid Red 33, disodium salt of 5-amino-4-hydroxy-3-(phenylazo)-naphthalene-2,7-disulphonate]",–
more than 7 g/L,"O=S(=O)([O-])c1ccc(N=Nc2c(O)ccc3ccccc23)cc1.[Na+] [Acid Orange 7, sodium salt of 4-[(2-hydroxy-1-naphthyl)azo]benzenesulfonate]",–
20 mg/mL,"mixture of the sodium salts of mono- and disulfonic acids of 2-(2-quinolyl)-1H-indene-1,3(2H)-dione [Acid Yellow 3]",–
–,"O=C([O-])C1=NN(c2ccc(S(=O)(=O)[O-])cc2)C(=O)C1N=Nc1ccc(S(=O)(=O)[O-])cc1.[Na+].[Na+].[Na+] (stereo not drawn) [Acid Yellow 23, trisodium salt of 4,5-dihydro-5-oxo-1-(4-sulfophenyl)-4-((4-sulfophenyl)azo)-1H-pyrazole-3-carboxylic acid]",solubility in water (in words): readily soluble

Compound,solubility in water,also measured
"O=C([O-])c1c(Cl)c(Cl)c(Cl)c(Cl)c1-c1c2c(Br)cc(=O)c(Br)c-2oc2c(Br)c(O)cc(Br)c12.O=C([O-])c1c(Cl)c(Cl)c(Cl)c(Cl)c1-c1c2c(Br)cc(=O)c(Br)c-2oc2c(Br)c(O)cc(Br)c12.[Na+].[Na+] [Acid Red 92, disodium salt of 3,4,5,6-tetrachloro-2-(1,4,5,8-tetrabromo-6-hydroxy-3-oxoxanthen-9-yl)benzoic acid]",greater than 10 g/L,–
